The text below walks through data of patent US8455226B2, “Method for producing metal nanoparticles” (Janssen Pharmaceutica N.V., priority 2006, dated 2013).

Structures are written as SMILES.

The test system of assay [1] is Escherichia coli. The experiment in a line: Antimicrobial activity on a solid growth medium for Escherichia coli (Example 4). It is filed as cell-based. Particulars: 24 hours at 30° C., plated 2×10^6 CFU/mL. Here is the method:
100 mL of a silver suspension with an Ag concentration of 5 mM, in the form of nanosilver deposited on Lactobacillus fermentum biomass as obtained in example 1, was plated onto a solidified growth medium for culturing Escherichia coli (Luria Bertani Agar). As a control, 100 mL of a solution of 5 mM AgNO3 in sterile milliQ water with 0.1 N NaOH were plated on the same growth medium. This setting agreed with a total amount of 0.05 mg Ag per agar plate, or 11 mg Ag per m^2 of total surface area. This experiment was repeated with twofold the latter concentrations, i.e. with 0.11 mg Ag per agar plate or 22 mg Ag per m^2 of total surface area.
By plating these silver suspensions, a homogeneous layer of Ag(I)NO3, or nano-Ag respectively, was applied onto the solidified growth media.
After pre-treating the solidified growth medium in this way, 100 μL of a 2×10^6 CFU/mL Escherichia coli suspension in physiological solution (8.5 g NaCl/L in sterile water) was plated on the pre-treated agar plates. The plates were then incubated during 24 hours at 30° C. and colonies were counted. The count results are illustrated by FIG. 1. At nano-Ag concentrations of 11 mg Ag/m^2 and 22 mg Ag/m^2, no viable cells of E. coli could be detected on the treated solid growth medium (<detection limit (D.L.)=1×10^1 CFU/ml). […]

In assay [2] the test system is some bacteria. Particulars: cited from earlier work.

On to `O=[N+]([O-])[O-].[Ag+]` [Ag(I)NO3, AgNO3], for which the “viable cells of E. coli on treated solid growth medium” value in assay [1] (11 mg Ag/m^2) is on record as 4×10^2 CFU/ml; in assay [1] (22 mg Ag/m^2), 1×10^2 CFU/ml.
With `OO` [Hydrogen peroxide], the “concentration known to inhibit the growth of some bacteria” value in assay [2] was 25 mg/L.
